# Read-outs that look alike come from different tables or passages of the source.
# Tested on: Human peripheral blood mononuclear cells (PBMC)
# Assay: Cytokine induction in human cells (PBMC), cytokines by ELISA / multiplex bead assay
# Format: cell-based
# Details: for minimal effective concentration: human PBMC, 21-24 hours, lowest concentration giving cytokine level at least 2x negative control; for cytokine production (statement in words): IFN-alpha, IFN-gamma, TNF-alpha
# Procedure: Whole blood was obtained from healthy human donors and collected by venipuncture into vacutainer tubes or syringes containing EDTA. Human peripheral blood mononuclear cells (PBMC) were purified from the whole blood by density gradient centrifugation. Histopaque 1077 (15 mL, Sigma, St. Louis, Mo.) was transferred to 6×50 mL sterile polypropylene conical tubes. The Histopaque was overlayed with 15-25 mL of blood diluted 1:2 in Hank's Balanced Salts Solution (HBSS) (Gibco, Life Technologies, Grand Island, N.Y.). The tubes were then centrifuged at 1370 revolutions per minute (rpm) for 30 minutes at 20° C., with no brake (400×g, GH 3.8 A Rotor).
# The interface (buffy coat) containing the PBMC was collected and placed in a new sterile 50 mL conical polypropylene centrifuge tube. The PBMC were mixed with an equal volume of HBSS (about 20 mL from the interface and about 20 mL of HBSS), and then centrifuged at 1090 rpm, 10 minutes, 20° C., with brake (270×g, GH 3.8 A Rotor). After completing centrifugation, the cells were resuspended in 2-3 mL ACK Red blood cell lysis buffer (ammonium chloride potassium solution, Gibco, Life Technologies) and incubated for 2-5 minutes at 20° C. Next, HBSS (40 mL) was added to the cells, and the sample was centrifuged at 270×g for 10 minutes at 20° C. The supernatant was decanted, and the cell pellet was resuspended in 5 mL AIM V Medium (Gibco, Life Technologies). Cell aggregates and debris were removed by filtering the cell solution through a BD Falcon 70 micron nylon cell strainer (BD Biosciences, San Jose, Calif.).
# The number of viable cells was determined by counting with a Miltenyi FACS instrument (Miltenyi Biotec Inc., San Diego, Calif.) or by using a hemacytometer. For determining cell viability with a hemacytometer, the cells were diluted 1/10 in 0.4% trypan blue and HBSS (specifically, 50 microliter of trypan blue+40 microliter of HBSS+10 microliter of cell solution were added to a microfuge tube and mixed). Ten microliters of the diluted cells were then applied to the hemacytometer, and the number of viable PBMC were determined by microscopy.
# The PBMC sample was then resuspended in 96-well plates at a concentration of 8×10^5 cells/well in 0.1 mL of AIM-V medium. Each compound was solubilized in dimethyl sulfoxide (DMSO) to create a 3 mM stock solution. The stock solution was then further diluted with AIM-V medium to prepare the serial dilutions. The diluted compound (100 microliters) was then transferred to the PBMCs to produce testing sets with final compound concentrations of either 30, 10, 3.3, 1.1, 0.37, 0.12, 0.04, 0.01 micromolar (testing set A); 100, 30, 10, 3.3, 1.1, 0.37, 0.12, 0.04, 0.01, 0.005 micromolar (testing set B); 100, 33.3, 11.1, 3.7, 1.2, 0.41 micromolar (testing set C); or 100, 50, 30, 10, 3.3, 1.1, 0.37, 0.12, 0.04 micromolar (testing set D). The plates also had both positive and negative controls. The negative control wells contained only AIM-V medium with no example compound. The positive control wells contained a control set of imiquimod serially diluted to concentrations of either 30, 10, 3.3, 1.1, 0.37, 0.12, 0.04, 0.01 micromolar (control set A); 100, 30, 10, 3.3, 1.1, 0.37, 0.12, 0.04, 0.01, 0.005 micromolar (control set B); 100, 33.3, 11.1, 3.7, 1.2, 0.41 micromolar (control set C); or 100, 50, 30, 10, 3.3, 1.1, 0.37, 0.12, 0.04 micromolar (control set D). The concentrations used in the control set were selected to match the concentrations used in the testing set. The plates were then cultured at 37° C./5% CO2 for 21-24 hours. Cell-free supernatants were harvested by centrifuging the 96-well plates at 2100 rpm, 23° C. for 10 minutes. Approximately 160 microliters of the supernatant was then stored in a NUNC 96-well plate, covered with the compression cap and stored at −80° C. until the cytokine analysis was done.
# IFN-alpha cytokine levels (picograms/mL) were measured by ELISA (human IFN-alpha, pan specific, Mabtech, Cincinnati, Ohio). […]
# [1] = ELISA, read-out: MEC to Induce Cytokine: IFN-alpha
# [2] = multiplex bead assay, read-out: MEC to Induce Cytokine: IFN-gamma
# [3] = multiplex bead assay, read-out: MEC to Induce Cytokine: TNF-alpha
SMILES,minimal effective concentration [1] [µM],minimal effective concentration [2] [µM],minimal effective concentration [3] [µM],cytokine production (statement in words)
"CC(C)Cn1cnc2c(N)nc3ccccc3c21 [Comparative Example 1, 1-isobutylimidazo[4,5-c]quinolin-4-amine, reference compound]",11.1,11.1,11.1,
"CC(C)(O)Cn1cnc2c(N)nc3ccccc3c21 [Comparative Example 2, 1-(4-aminoimidazo[4,5-c]quinolin-1-yl)-2-methyl-propan-2-ol, reference compound]",10,10,10,
"CC(C)[C@@H](C)n1cnc2c(N)nc3ccccc3c21 [Example 1, 1-[(1R)-1,2-dimethylpropyl]imidazo[4,5-c]quinolin-4-amine]",3.7,3.7,1.2,
"CC(C)[C@H](C)n1cnc2c(N)nc3ccccc3c21 [Example 2, 1-[(1S)-1,2-dimethylpropyl]imidazo[4,5-c]quinolin-4-amine]",> 100,> 100,> 100,inactive toward cytokine production
"C[C@@H](n1cnc2c(N)nc3ccccc3c21)C(C)(C)C [Example 3, 1-[(1R)-1,2,2-trimethylpropyl]imidazo[4,5-c]quinolin-4-amine]",1.2,1.2,1.2,
"C[C@H](n1cnc2c(N)nc3ccccc3c21)C(C)(C)C [Example 4, 1-[(1S)-1,2,2-trimethylpropyl]imidazo[4,5-c]quinolin-4-amine]",> 100,> 100,> 100,inactive toward cytokine production
"C[C@H](C1CCCCC1)n1cnc2c(N)nc3ccccc3c21 [Example 5, 1-[(1R)-1-cyclohexylethyl]imidazo[4,5-c]quinolin-4-amine]",0.41,1.2,0.41,
"C[C@@H](C1CCCCC1)n1cnc2c(N)nc3ccccc3c21 [Example 6, 1-[(1S)-1-cyclohexylethyl]imidazo[4,5-c]quinolin-4-amine]",> 100,> 100,> 100,inactive toward cytokine production
"CCCC[C@H](C(C)C)n1cnc2c(N)nc3ccccc3c21 [Example 7, 1-[(1R)-1-isopropylpentyl]imidazo[4,5-c]quinolin-4-amine]",0.12,> 30,0.12,
"CCCC[C@@H](n1cnc2c(N)nc3ccccc3c21)C(C)(C)C [Example 8, 1-[(1R)-1-tert-butylpentyl]imidazo[4,5-c]quinolin-4-amine]",0.04,> 30,0.04,
"C[C@@H](n1cnc2c(N)nc3ccccc3c21)C(C)(C)O [Example 9, (3R)-3-(4-aminoimidazo[4,5-c]quinolin-1-yl)-2-methyl-butan-2-ol]",3.3,3.3,10,
"C[C@H](n1cnc2c(N)nc3ccccc3c21)C(C)(C)O [Example 10, (3S)-3-(4-aminoimidazo[4,5-c]quinolin-1-yl)-2-methyl-butan-2-ol]",> 30,> 30,> 30,inactive toward cytokine production
"CC[C@@H](n1cnc2c(N)nc3ccccc3c21)C(C)(C)O [Example 11, (3R)-3-(4-aminoimidazo[4,5-c]quinolin-1-yl)-2-methyl-pentan-2-ol]",1.1,3.3,1.1,
"CC[C@H](n1cnc2c(N)nc3ccccc3c21)C(C)(C)O [Example 12, (3S)-3-(4-aminoimidazo[4,5-c]quinolin-1-yl)-2-methyl-pentan-2-ol]",> 100,> 100,> 100,inactive toward cytokine production
"CCC[C@@H](n1cnc2c(N)nc3ccccc3c21)C(C)(C)O [Example 13, (3R)-3-(4-aminoimidazo[4,5-c]quinolin-1-yl)-2-methyl-hexan-2-ol]",≤ 0.41,≤ 0.41,≤ 0.41,
"CCC[C@H](n1cnc2c(N)nc3ccccc3c21)C(C)(C)O [Example 14, (3S)-3-(4-aminoimidazo[4,5-c]quinolin-1-yl)-2-methyl-hexan-2-ol]",> 30,> 30,> 30,inactive toward cytokine production
"CCCC[C@@H](n1cnc2c(N)nc3ccccc3c21)C(C)(C)O [Example 15, (3R)-3-(4-aminoimidazo[4,5-c]quinolin-1-yl)-2-methyl-heptan-2-ol]",≤ 0.04,0.12,0.12,
"CCCC[C@H](n1cnc2c(N)nc3ccccc3c21)C(C)(C)O [Example 16, (3S)-3-(4-aminoimidazo[4,5-c]quinolin-1-yl)-2-methyl-heptan-2-ol]",> 100,> 100,> 100,inactive toward cytokine production
"CC(C)C[C@@H](n1cnc2c(N)nc3ccccc3c21)C(C)(C)O [Example 17, (3R)-3-(4-aminoimidazo[4,5-c]quinolin-1-yl)-2,5-dimethyl-hexan-2-ol]",10,10,10,
"CC(C)C[C@H](n1cnc2c(N)nc3ccccc3c21)C(C)(C)O [Example 18, (3S)-3-(4-aminoimidazo[4,5-c]quinolin-1-yl)-2,5-dimethyl-hexan-2-ol]",> 100,> 100,> 100,inactive toward cytokine production
"CCC(O)(CC)[C@@H](C)n1cnc2c(N)nc3ccccc3c21 [Example 19, (2R)-2-(4-aminoimidazo[4,5-c]quinolin-1-yl)-3-ethyl-pentan-3-ol]",1.1,3.3,1.1,
"C[C@@H](n1cnc2c(N)nc3ccccc3c21)C(C)(C)F [Example 20, 1-[(1R)-2-fluoro-1,2-dimethyl-propyl]imidazo[4,5-c]quinolin-4-amine]",10,30,10,

# Reference: patent US20220177471A1, “N-1 BRANCHED ALKYL SUBSTITUTED IMIDAZO[4,5-C]QUINOLINE COMPOUNDS, COMPOSITIONS, AND METHODS” (3M INNOVATIVE PROPERTIES COMPANY, priority 2019, published 2022)
